Counter-ions that a name gives are not always drawn.

This note sets out measurements from patent EP0182135A2, “Novel bis-(substituted amino) anthraquinones” (AMERICAN CYANAMID COMPANY, priority 1984, dated 1986).

Assay [1] concerns lymphocytic leukemia P388. The experiment in a line: Lymphocytic Leukemia P388 Test. In kind it is in vivo, DBA/2 mice. On the procedure:
Lymphocytic Leukemia P388 Test
The animals used were DBA/2 mice all of one sex, weighing a minimum of 17 g and all within a 3 g weight range. There were 5 or 6 animals per test group. The tumor transplant was by intraperitoneal injection of 0.1 ml of dilute ascitic fluid containing 10^6 cells of lymphocytic leukemia P388. The test compounds were administered intraperitoneally on days 1, 5 and 9 (relative to tumor inoculation) at various doses. The animals were weighed and survivors were recorded on a regular basis for 30 days. The median survival time and the ratio of survival time for treated (T)/control (C) animals were calculated. The positive control compound was 1,4-dihydroxy-5,8-bis--[ [2-(2-hydroxyethylamino)ethyl ]amino]anthraquinone, dihydrochloride (U.S. Patent 4,197,249) given at the indicated doses by injection.

The test system of the next assay is melanotic melanoma B16. The experiment in a line: Melanotic Melanoma B16 Test. The assay is classed as in vivo, C57BC/6 mice. On the procedure:
The animals used were C57BC/6 mice, all of the same sex, weighing a minimum of 17 g and all within a 3 g weight range. There were normally 10 animals per test group. A 1.0 g portion of melanotic melanoma B16 tumor was homogenized in 10 ml of cold balanced salt solution and a 0.5 ml aliquot of the homogenate was implanted intraperitoneally into each of the test mice. The test compounds were administered intraperitoneally on days one through nine (relative to tumor inoculation) at various doses. The animals were weighed and survivors recorded on a regular basis for 60 days. The median survival time and the ratio of survival time for treated (T)/control (C) animals were calculated. The positive control compound was 1,4-dihydroxy-5,8-bis[[2-(2-hydroxyethylamino)-ethyl]amino]anthraquinone, dihydrochloride (U.S. Patent 4,197,249) given at the indicated doses by injection.

Where [2] appears, read: Dose 3 mg/kg intraperitoneally on days 1, 5 and 9.
Setting [3] is: Dose 12 mg/kg intraperitoneally on days 1, 5 and 9.
Setting [4] is: Dose 50 mg/kg intraperitoneally on days 1, 5 and 9.
[5] abbreviates: Dose 200 mg/kg intraperitoneally on days 1, 5 and 9.
[6] abbreviates: Dose 0.8 mg/kg intraperitoneally on days one through nine.
Where [7] appears, read: Dose 3 mg/kg intraperitoneally on days one through nine.
The mark [8] stands for this setting: Dose 12 mg/kg intraperitoneally on days one through nine.
[9] abbreviates: Dose 50 mg/kg intraperitoneally on days one through nine.
Where [10] appears, read: Dose 3 mg/kg intraperitoneally on days 1, 5 and 9, dihydrochloride, 3 mg/kg.
Setting [11] is: Dose 12 mg/kg intraperitoneally on days 1, 5 and 9, dihydrochloride, 12 mg/kg.
The mark [12] stands for this setting: Dose 50 mg/kg intraperitoneally on days 1, 5 and 9, dihydrochloride, 50 mg/kg.
[13] abbreviates: Dose 3 mg/kg intraperitoneally on days 1, 5 and 9, 3 mg/kg.
Where [14] appears, read: Dose 12 mg/kg intraperitoneally on days 1, 5 and 9, 12 mg/kg.
The mark [15] stands for this setting: Dose 50 mg/kg intraperitoneally on days 1, 5 and 9, 50 mg/kg.
Setting [16] is: Dose 25 mg/kg intraperitoneally on days one through nine.
Setting [17] is: Dose 100 mg/kg intraperitoneally on days one through nine.
The mark [18] stands for this setting: Dose 0.025 mg/kg intraperitoneally on days 1, 5 and 9.
The mark [19] stands for this setting: Dose 0.1 mg/kg intraperitoneally on days 1, 5 and 9.
The mark [20] stands for this setting: Dose 0.4 mg/kg intraperitoneally on days 1, 5 and 9.
Where [21] appears, read: Dose 1.6 mg/kg intraperitoneally on days 1, 5 and 9.
Where [22] appears, read: Dose 6.4 mg/kg intraperitoneally on days 1, 5 and 9.
The mark [23] stands for this setting: Dose 0.05 mg/kg intraperitoneally on days one through nine.
[24] abbreviates: Dose 0.2 mg/kg intraperitoneally on days one through nine.
Where [25] appears, read: Dose 0.8 mg/kg intraperitoneally on days 1, 5 and 9.

In the case of `COC(=O)C(=O)NCCNc1ccc(NCCNC(=O)C(=O)OC)c2c1C(=O)c1c(O)ccc(O)c1C2=O` [2,2[(9-10-Dihydro-5,8-dihydroxy-9,10-dioxo-1,4-anthracenediyl)bis(imino-2,1-ethanediylimino)]-bis[2-oxoacetic acid]dimethyl ester], the “Median Survival” value in assay [1] (setting [2]) was 16 days; in assay [1] (setting [3]) it was 19.5 days; in assay [1] (setting [4]), 20.5 days; in assay [1] (setting [5]), 23 days; in the assay on melanotic melanoma B16 (setting [6]), 23.5 days; in the assay with melanotic melanoma B16 (setting [7]), 26.5 days. Also, the “Median Survival” value is 31.5 days in the assay on melanotic melanoma B16 (setting [8]) and over 60 days in the assay on melanotic melanoma B16 (setting [9]). In addition, the “T/C x 100 (%)” value turned out to be 145% in assay [1] (setting [2]); 177% in assay [1] (setting [3]); 186% in assay [1] (setting [4]); 209% in assay [1] (setting [5]); 155% with melanotic melanoma B16 (setting [6]); 129% in the assay with melanotic melanoma B16 (setting [7]). Besides, the “T/C x 100 (%)” value is listed as 154% in the assay with melanotic melanoma B16 (setting [8]) and over 293% in the assay with melanotic melanoma B16 (setting [9]).

For `CN(C)CCCNC(=S)N(CCO)CCNc1ccc(NCCN(CCO)C(=S)NCCCN(C)C)c2c1C(=O)c1c(O)ccc(O)c1C2=O` [N,N"-[(9,10-Dihydro-5,8-dihydroxy-9,10-dioxo-1,4-anthracenediyl)bis(imino-2,1-ethanediyl)]bis[N'-[3-(dimethylamino)propyl]-N-(2-hydroxyethyl)]thiourea, dihydrochloride], the “Median Survival” value is 15 days in assay [1] (setting [10]); 19.5 days in assay [1] (setting [11]); 22.5 days in assay [1] (setting [12]); 24.5 days in the assay with melanotic melanoma B16 (setting [6]); 33.5 days in the assay with melanotic melanoma B16 (setting [7]); over 60 days in the assay with melanotic melanoma B16 (setting [8]). Further, the “T/C x 100 (%)” value in assay [1] (setting [10]) was 136%; in assay [1] (setting [11]), 177%; in assay [1] (setting [12]), 205%; in the assay on melanotic melanoma B16 (setting [6]) it was 114%; in the assay on melanotic melanoma B16 (setting [7]) it was 156%; in the assay on melanotic melanoma B16 (setting [8]), over 279%.

As to `CN(C)CCCNC(=S)N(CCO)CCNc1ccc(NCCN(CCO)C(=S)NCCCN(C)C)c2c1C(=O)c1c(O)ccc(O)c1C2=O` [N,N"-[(9,10-Dihydro-5,8-dihydroxy-9,10-dioxo-1,4-anthracenediyl)bis(imino-2,1-ethanediyl)]bis[N'-[3-(dimethylamino)propyl]-N-(2-hydroxyethyl)]thiourea], the “Median Survival” value in assay [1] (setting [13]) stood at 13 days; in assay [1] (setting [14]), 13.5 days; in assay [1] (setting [15]) it was 19.5 days; in assay [1] (setting [5]) it was 23 days; in the assay with melanotic melanoma B16 (setting [16]), 27.5 days; with melanotic melanoma B16 (setting [17]), 42 days. In addition, the “T/C x 100 (%)” value in assay [1] (setting [13]) is listed as 124%; in assay [1] (setting [14]), 129%; in assay [1] (setting [15]), 186%; in assay [1] (setting [5]), 219%; in the assay with melanotic melanoma B16 (setting [16]), 146%; with melanotic melanoma B16 (setting [17]) it was 222%.

In the case of `O=C1c2c(OC(=O)C(F)(F)F)ccc(OC(=O)C(F)(F)F)c2C(=O)c2c(N(CCN(CCOC(=O)C(F)(F)F)C(=O)C(F)(F)F)C(=O)C(F)(F)F)ccc(N(CCN(CCOC(=O)C(F)(F)F)C(=O)C(F)(F)F)C(=O)C(F)(F)F)c21` [N,N'-(5,8-Dihydroxy-l,4-anthraquinonylene)bis[2,2,2-trifluoro-N-[2,(2,2,2-trifluoro-N-2-hydroxyethyl-acetamido)ethyl]acetamide]tetrakis(trifluoroacetate) (tetraester)], the “Median Survival” value in assay [1] (setting [18]) was found to be 13.5 days; in assay [1] (setting [19]), 16 days; in assay [1] (setting [20]), 15 days; in assay [1] (setting [21]) it was 19.5 days; in assay [1] (setting [22]), 26.5 days; with melanotic melanoma B16 (setting [23]), 27 days. The “Median Survival” value with melanotic melanoma B16 (setting [24]) was 27 days; in the assay with melanotic melanoma B16 (setting [6]), 34 days; with melanotic melanoma B16 (setting [7]), over 52 days; in the assay on melanotic melanoma B16 (setting [8]) it was 42 days. The “T/C x 100 (%)” value in assay [1] (setting [18]) is 117%; in assay [1] (setting [19]) it was 139%; in assay [1] (setting [20]), 130%; in assay [1] (setting [21]), 170%; in assay [1] (setting [22]) it was 230%; with melanotic melanoma B16 (setting [23]), 132%. The “T/C x 100 (%)” value with melanotic melanoma B16 (setting [24]) is reported as 132%; in the assay on melanotic melanoma B16 (setting [6]), 166%; with melanotic melanoma B16 (setting [7]), over 254%; with melanotic melanoma B16 (setting [8]), 205%.

Take `CC(=O)OCCN(CCNc1ccc(NCCN(CCOC(C)=O)C(C)=O)c2c1C(=O)c1c(O)ccc(O)c1C2=O)C(C)=O` [N,N'-[5,8-Dihydroxyl,4-anthraquinonylene-bis(imino-ethylene)]bis[N-2-hydroxyethylacetamide-2,2'diacetate]]: the “Median Survival” value in assay [1] (setting [25]) is 11 days; in assay [1] (setting [2]), 10 days; in assay [1] (setting [3]) it was 14 days; in assay [1] (setting [4]), 16 days; in assay [1] (setting [5]), 17 days; in the assay on melanotic melanoma B16 (setting [6]), 21.5 days. Also, the “Median Survival” value amounted to 21.5 days in the assay on melanotic melanoma B16 (setting [7]), 20.5 days in the assay on melanotic melanoma B16 (setting [8]) and 21.5 days in the assay with melanotic melanoma B16 (setting [9]). Besides, the “T/C x 100 (%)” value in assay [1] (setting [25]) is recorded as 116%; in assay [1] (setting [2]) it was 105%; in assay [1] (setting [3]) it was 147%; in assay [1] (setting [4]), 168%; in assay [1] (setting [5]) it was 179%; in the assay with melanotic melanoma B16 (setting [6]) it was 106%. Moreover, the results for the “T/C x 100 (%)” value in the assay on melanotic melanoma B16 (setting [7]), in the assay on melanotic melanoma B16 (setting [8]) and in the assay on melanotic melanoma B16 (setting [9]) were 106%, 101% and 106%, respectively.

As for `CC(=O)C(=O)NCCNc1ccc(NCCNC(=O)C(C)=O)c2c1C(=O)c1c(O)ccc(O)c1C2=O` [N,N'-[9,10-Dihydro-5,8-dihydroxy-9,10-dioxo-1,4-anthracenediyl)bis(imino-2,1-ethanediyl)]bis-[2-oxopropanamide]], the “Median Survival” value worked out at 13.5 days in assay [1] (setting [4]); 16.5 days in assay [1] (setting [5]); 43.5 days in the assay with melanotic melanoma B16 (setting [16]); 41 days in the assay on melanotic melanoma B16 (setting [9]); 38 days in the assay on melanotic melanoma B16 (setting [17]). For the same compound, the “T/C x 100 (%)” value in assay [1] (setting [4]) worked out at 123%; in assay [1] (setting [5]) it was 150%; with melanotic melanoma B16 (setting [16]), 182%; in the assay with melanotic melanoma B16 (setting [9]), 171%; in the assay on melanotic melanoma B16 (setting [17]), 158%.
